Entries after “also recorded” stand apart in the source; their conditions may differ.
Tests used:
[1] = tested on: murine hepatitis virus strain A59 (MHV); experiment: Reduction of MHV cytopathic effect (CPE) in LR7 cells, MTS/PMS readout; assay type: cell-based; conditions: 50 μM, MOI 0.01, 24 h
Procedure: LR7 cells were seeded in a 96-well plate and cultured overnight. Next, the cells were infected with MHV at an MOI value of 0.01 in medium without FBS. Following 1 h of incubation, the medium containing the virus was collected and cells were covered with a medium supplemented with different concentrations (in triplicate) of the analyzed compounds or DMSO. 24 h p.i. cells viability was evaluated by CellTiter 96 AQueous nonradioactive cell proliferation assay (Promega) according to the manufacturer’s instruction.

[2] = tested on: human coronavirus strain NL63 (HCoV-NL63); experiment: HCoV-NL63 N protein expression in LLC-Mk2 cells, Western blot and densitometry; assay type: cell-based; conditions: 50 μM, MOI 0.01, 4 days p.i., Western blot/densitometry
Procedure: LLC-Mk2 monolayers grown in 24-well plates were infected with HCoV-NL63 at an MOI value of 0.01 for 2 h. Unbound virus was removed, and cells were cultured in medium supplemented with different concentrations of compounds. Four days postinfection, cells were collected and lysed in CellLyticM Cell Lysis Reagent (Sigma). Following the protein separation by SDS-PAGE and transfer to PVDF membranes, proteins were immunoblotted using specific mouse anti-N NL63 Abs (Eurofins, Spain) or rabbit anti-β-catenin Abs (Santa Cruz), followed by antimouse or antirabbit secondary antibodies conjugated with HRP. Proteins were visualized and analyzed by chemiluminescence using the UVITEC Cambridge Alliance MINI HD detection system. The densitometric analysis of cells treated with 50 μM dose of a panel of glycoconjugates was performed based on three biological replicates of N and β-catenin immunoblots. The N protein levels were expressed as a percentage relative to DMSO-treated infected cells, while β-catenin levels were expressed as a percentage relative to noninfected control cells. The data were presented as the ratio of N/β-catenin for each sample, normalized accordingly.

[3] = tested on: LR7 cells; experiment: MTS-based cell viability assay in LR7 cells; parameters: species or system mouse; conditions: 50 μM, uninfected LR7 cells
Procedure: LR7, LLC-Mk2 or Vero cells were seeded in 96-well plates and cultured overnight. Next, the medium was changed to a new one supplemented with different concentrations (in triplicate) of analyzed compounds. Following the 2 days (LR7 and Vero) or 4 days (LLC-Mk-2) of incubation, CellTiter 96 AQueous nonradioactive cell proliferation assay (Promega) was performed according to the manufacturer’s instruction. The half-maximal cytotoxic concentration (CC50) was calculated as the concentration of a compound needed to reduce cell viability by 50% using GraphPad Prism software (version 5.01, GraphPad Software, San Diego, CA).

[4] = tested on: SARS-CoV-2 replicon; assay type: cell-based

| SMILES | protection against MHV-induced CPE [1] | HCoV-NL63 N protein level [2] | reduction of cell viability (cytotoxicity in uninfected cells) [3] | inhibition of SARS-CoV-2 replication (replicon) [4] |
| --- | --- | --- | --- | --- |
| CC(=O)OC[C@H]1O[C@@H](OCc2cn(C[C@H]3O[C@@H](n4ccc(=O)[nH]c4=O)[C@H](O[Si](C)(C)C(C)(C)C)[C@@H]3O[Si](C)(C)C(C)(C)C)nn2)[C@H](OC(C)=O)[C@@H](OC(C)=O)[C@@H]1OC(C)=O [Compound 14, 2′,3′-di-O-tert-Butyldimethylsilyl-5′-deoxy-5′-[4-(2″,3″,4″,6″-tetra-O-acetyl-β-D-glucopyranosyloxymethyl)-1,2-3-triazol-1-yl]-uridine] | significantly reduced cell death | significantly reduced; also recorded: weaker activity against HCoV-NL63 | 10–30% | – |
| CC(=O)OC[C@H]1O[C@@H](OCCn2cc(CNC(=O)[C@H]3O[C@@H](n4ccc(=O)[nH]c4=O)[C@H](O[Si](C)(C)C(C)(C)C)[C@@H]3O[Si](C)(C)C(C)(C)C)nn2)[C@H](OC(C)=O)[C@@H](OC(C)=O)[C@@H]1OC(C)=O [Compound 16, N-Uracil [(1-(2″,3″,4″,6″-tetra-O-Acetyl-β-D-glucopyranosyloxyethyl)-1,2-3-triazol-4-yl)-methyl]-1′-deoxy-2′,3′-di-O-tert-butyldimethylsilyl-β-D-ribofuranuronamide] | – | No significant reduction | 10–30% | – |
| CC(=O)OC[C@H]1O[C@@H](OCCn2cc(CNC(=O)[C@H]3O[C@@H](n4ccc(=O)[nH]c4=O)[C@H](O[Si](C)(C)C(C)(C)C)[C@@H]3O[Si](C)(C)C(C)(C)C)nn2)[C@H](OC(C)=O)[C@@H](OC(C)=O)[C@H]1OC(C)=O [Compound 17, N-Uracil [(1-(2″, 3″, 4″, 6″-tetra-O-Acetyl-β-D-galactopyranosyloxyethyl)-1,2-3-triazol-4-yl)-methyl]-1′-deoxy-2′,3′-di-O-tert-butyldimethylsilyl-β-D-ribofuranuronamide] | – | No significant reduction | 10–30% | – |
| CC(=O)OC[C@H]1O[C@@H](NC(=O)Cn2cc(CNC(=O)[C@H]3O[C@@H](n4ccc(=O)[nH]c4=O)[C@H](O[Si](C)(C)C(C)(C)C)[C@@H]3O[Si](C)(C)C(C)(C)C)nn2)[C@H](OC(C)=O)[C@@H](OC(C)=O)[C@@H]1OC(C)=O [Compound 18, N-Uracil [((1-(2-oxo-(2″,3″,4″,6″-tetra-O-Acetyl-β-D-glucopyranosyl)-amino)-ethyl)-1,2-3-triazol-4-yl)-methyl]-1′-deoxy-2′,3′-di-O-tert-butyldimethylsilyl-β-D-ribofuranuronamide] | limited anti-MHV activity | No significant reduction | 10–30% | – |
| CC(=O)OC[C@H]1O[C@@H](NC(=O)Cn2cc(CNC(=O)[C@H]3O[C@@H](n4ccc(=O)[nH]c4=O)[C@H](O[Si](C)(C)C(C)(C)C)[C@@H]3O[Si](C)(C)C(C)(C)C)nn2)[C@H](OC(C)=O)[C@@H](OC(C)=O)[C@H]1OC(C)=O [Compound 19, N-Uracil [((1-(2-oxo-(2″,3″,4″,6″-tetra-O-Acetyl-β-D-galactopyranosyl)-amino)-ethyl)-1,2-3-triazol-4-yl)-methyl]-1′-deoxy-2′,3′-di-O-tert-butyldimethylsilyl-β-D-ribofuranuronamide] | limited anti-MHV activity | No significant reduction | 10–30% | – |
| CC(=O)OC[C@H]1O[C@@H](SCn2cc(CNC(=O)[C@H]3O[C@@H](n4ccc(=O)[nH]c4=O)[C@H](O[Si](C)(C)C(C)(C)C)[C@@H]3O[Si](C)(C)C(C)(C)C)nn2)[C@H](OC(C)=O)[C@@H](OC(C)=O)[C@@H]1OC(C)=O [Compound 22, N-Uracil [(1-(2″,3″,4″,6″-tetra-O-Acetyl-β-D-glucopyranosylthiomethyl)-1,2-3-triazol-4-yl)-methyl]-1′-deoxy-2′,3′-di-O-tert-butyldimethylsilyl-β-D-ribofuranuronamide] | significantly reduced cell death | No significant reduction | no detectable toxicity | – |
| CC(=O)OC[C@H]1O[C@@H](SCn2cc(CNC(=O)[C@H]3O[C@@H](n4ccc(=O)[nH]c4=O)[C@H](O[Si](C)(C)C(C)(C)C)[C@@H]3O[Si](C)(C)C(C)(C)C)nn2)[C@H](OC(C)=O)[C@@H](OC(C)=O)[C@H]1OC(C)=O [Compound 23, N-Uracil [(1-(2″,3″,4″,6″-tetra-O-Acetyl-β-D-galactopyranosylthiomethyl)-1,2-3-triazol-4-yl)-methyl]-1′-deoxy-2′,3′-di-O-tert-butyldimethylsilyl-β-D-ribofuranuronamide] | – | No significant reduction | 10–30% | – |
| CC(=O)OC[C@H]1O[C@@H](SCn2cc(COC[C@H]3O[C@@H](n4ccc(=O)[nH]c4=O)[C@H](O[Si](C)(C)C(C)(C)C)[C@@H]3O[Si](C)(C)C(C)(C)C)nn2)[C@H](OC(C)=O)[C@@H](OC(C)=O)[C@H]1OC(C)=O [Compound 25, 2′,3′-di-O-tert-Butyldimethylsilyl-5′-O-[(1-(2″,3″,4″,6″-tetra-O-acetyl-β-D-galactopyranosylthiomethyl)-1,2-3-triazol-4-yl)-methyl]-uridine] | lower activity against MHV | significantly reduced; also recorded: No N protein was detected | – | – |
| CC(C)(C)[C@H](NC(=O)C(F)(F)F)C(=O)N1C[C@H]2[C@@H]([C@H]1C(=O)N[C@H](C#N)C[C@@H]1CCNC1=O)C2(C)C [nirmatrelvir, reference compound] | – | – | – | inhibited SARS-CoV-2 replication |

From paper PMC12406196, “Anticoronavirus Activity of Uridine Glycoconjugates Containing a 1,2,3-Triazole Moiety” (Journal of Medicinal Chemistry, 2025)
